Our source for the IC50 values is patent US12617773B2, “Azetidin-3-ylmethanol derivatives as CCR6 receptor modulators” (Idorsia Pharmaceuticals Ltd, priority 2020, dated 2026).

Molecules are shown by their SMILES.

The test concerns the target T1, human CCR6 (Homo sapiens, UniProt P51684).
T1 construct: expressed in transfected cells; host or cells: HEK-293
T1 sequence (P51684 1-374): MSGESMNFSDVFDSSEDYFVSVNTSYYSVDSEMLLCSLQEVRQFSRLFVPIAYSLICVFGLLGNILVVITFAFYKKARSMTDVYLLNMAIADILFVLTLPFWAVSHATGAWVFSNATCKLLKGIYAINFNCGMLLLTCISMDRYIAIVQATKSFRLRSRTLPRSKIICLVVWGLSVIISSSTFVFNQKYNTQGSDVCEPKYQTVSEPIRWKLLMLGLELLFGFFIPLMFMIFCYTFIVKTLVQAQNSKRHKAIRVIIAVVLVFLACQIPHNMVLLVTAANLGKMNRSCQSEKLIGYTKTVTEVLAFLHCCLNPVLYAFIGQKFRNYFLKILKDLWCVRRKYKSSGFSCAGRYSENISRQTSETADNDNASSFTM
The test can be described thus: FLIPR assay (inhibition of CCL20-induced calcium signal). The test is classed as cell-based. The note with it: HEK-293 cells expressing human CCR6; mean values where determined several times; read-out: FLIPR IC50. In short, it runs like this: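 IC50 values come from baseline-corrected peak calcium fluorescence after agonist. The agonist was CCL20 at 10 nM final, added to engineered human CCR6 HEK-293 cells following a 30-min, room-temperature, dark preincubation with serially diluted compound. Readings were taken in a fluorometric imaging plate reader.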
As for `CC(C)c1ccc([C@](O)(c2cncc(N3CCCC(O)C3)c2)C2(C)CN(C)C2)cc1` (stereo partly drawn) [Example 182], the IC50 turned out to be 86.5 nM.

Take `[2H]C([2H])([2H])C(=O)N1CC(F)(c2nc(-c3cncc([C@@](O)(c4ccc(C(C)C)cc4)C4(C)CN(C)C4)c3)no2)C1` [Example 345]: the IC50 came out at 252 nM.

Regarding `CC(C)c1ccc([C@](O)(c2cncc(N3C[C@H]4CC[C@@H](C3)O4)c2)C2(C)CN(C)C2)cc1` [Example 240], the IC50 amounted to 82.9 nM.

Regarding `CC(C)c1ccc([C@](O)(c2cncc(-c3noc(C4CCN(C(=O)C5COC5)CC4)n3)c2)C2(C)CN(C)C2)cc1` [Example 476], the concentration for half-maximal inhibition (IC50) is 112 nM.

As for `Cc1cccc(C(C)(O)C#Cc2cncc([C@@](O)(c3ccc(C(C)C)cc3)C3(C)CN(C4CC4)C3)c2)n1` (stereo partly drawn) [Example 670, 4-{5-[(R)-(1-Cyclopropyl-3-methyl-azetidin-3-yl)-hydroxy-(4-isopropyl-phenyl)-methyl]-pyridin-3-yl}-2-(6-methyl-pyridin-2-yl)-but-3-yn-2-ol], the half-maximal inhibitory concentration (IC50) was determined as 42.8 nM.

Take `CC(C)c1ccc(C(O)(c2cncc(C(C)C)c2)C2(C)CN(C)C2)cc1` (stereo not drawn) [Example 290]: the IC50 is 100 nM.

In the case of `CC(C)c1ccc([C@](O)(c2ccnc(-c3noc(C4CCOCC4)n3)c2)C2(C)CN(C)C2)cc1` [Example 329, (S)-(1,3-Dimethyl-azetidin-3-yl)-(4-isopropyl-phenyl)-{2-[5-(tetrahydro-pyran-4-yl)-[1,2,4]oxadiazol-3-yl]-pyridin-4-yl}-methanol], the IC50 turned out to be 485 nM.

On to `COc1cccc(C(C)(O)C#Cc2cncc([C@@](O)(c3ccc(C(C)C)cc3)C3(C)CN(C)C3)c2)n1` (stereo partly drawn) [Example 37], for which the half-inhibitory concentration (IC50) amounted to 20.7 nM.

For `C=C(C)c1ccc([C@](O)(c2cncc(-c3noc(C(C)(C)O)n3)c2)C2(C)CN(C)C2)cc1` [Example 575], the IC50 stood at 103 nM.

Take `CC1CC(=O)N(c2cc([C@@](O)(c3ccc(C(C)C)cc3)C3(C)CN(C)C3)cnn2)C1` (stereo partly drawn) [Example 432]: the IC50 amounted to 146 nM.

As to `CC(C)c1ccc([C@](O)(c2cncc(N3C[C@@H](C)O[C@@H](C)C3)c2)C2(C)CN(C)C2)cc1` [Example 224], the IC50 was 48.5 nM.

Turning to `CC(C)c1ccc([C@](O)(c2cncc(C#CC(C)(C)N3CCCC3=O)c2)C2(C)CN(C)C2)cc1` [Example 592], the IC50 was 44.8 nM.

For the compound `CC(C)c1ccc([C@](O)(c2ccnc(C3CCCC3)c2)C2(C)CN(C)C2)cc1` [Example 280, (S)-(2-Cyclopentyl-pyridin-4-yl)-(1,3-dimethyl-azetidin-3-yl)-(4-isopropyl-phenyl)-methanol], the IC50 turned out to be 37.4 nM.

For the compound `CC(C)c1ccc([C@](O)(c2cncc(CCC3(O)CCN(C(=O)OC(C)(C)C)C3)c2)C2(C)CN(C)C2)cc1` (stereo partly drawn) [Example 412], the IC50 worked out at 90 nM.

For the compound `CC(C)c1ccc([C@](O)(c2cncc(-c3noc(C4CCN(C(=O)C5CCOCC5)CC4)n3)c2)C2(C)CN(C)C2)cc1` [Example 376], the IC50 came out at 102 nM.

As to `CC(=O)N1CCC(c2ccnc(-c3cncc([C@@](O)(c4ccc(C(C)C)cc4)C4(C)CN(C)C4)c3)n2)CC1` [Example 686, 1-[4-(2-{5-[(R)-(1,3-Dimethyl-azetidin-3-yl)-hydroxy-(4-isopropyl-phenyl)-methyl]-pyridin-3-yl}-pyrimidin-4-yl)-piperidin-1-yl]-ethanone], the concentration for half-maximal inhibition (IC50) amounted to 145 nM.

Take `Cc1cccc(C(C)(O)C#Cc2cncc([C@@](O)(c3ccc(C(C)C)cc3)C3(F)CN(C)C3)c2)n1` (stereo partly drawn) [Example 661]: the IC50 was determined as 54.3 nM.

As to `CC(C)c1ccc([C@](O)(c2cncc(-c3noc(C4CCOCC4)n3)c2)C2(C)CN(C3CC3)C2)cc1` [Example 451], the IC50 is 43.5 nM.

Consider `Cc1cccc(C(C)(O)C#Cc2cncc([C@@](O)(c3ccc(C(F)(F)F)cc3)C3(C)CN(C)C3)c2)n1` (stereo partly drawn) [Example 656], for which the IC50 stood at 208 nM.

`CC(C)c1ccc([C@](O)(c2cncc(C#CC(C)(O)c3nn(C)c4ccccc34)c2)C2(C)CN(C)C2)cc1` (stereo partly drawn) [Example 614]: the 50% inhibitory concentration (IC50) came to 12.6 nM.

In the case of `CCCc1ccc([C@](O)(c2cncc(-c3nc(COC4CCC4)no3)c2)C2(C)CN(C)C2)cc1` [Example 87], the IC50 turned out to be 61.5 nM.

On to `CC(C)c1ccc([C@](O)(c2cncc(-c3ncon3)c2)C2(C)CN(C)C2)cc1` [Example 530, (R)-(1,3-Dimethyl-azetidin-3-yl)-(4-isopropyl-phenyl)-(5-[1,2,4]oxadiazol-3-yl-pyridin-3-yl)-methanol], for which the IC50 was determined as 58.7 nM.

In the case of `CC(C)c1ccc([C@](O)(c2cncc(C#C[C@H](C)O)c2)C2(C)CN(C)C2)cc1` [Example 17], the IC50 stood at 53.5 nM.

As to `CC(=O)N1CC[C@H](c2nc(-c3cncc([C@@](O)(c4ccc(C(C)C)cc4)C4(C)CN(C)C4)c3)no2)C[C@@H]1C` [Example 469], the IC50 was 137 nM.

In the case of `CCC1(c2nc(-c3cncc([C@@](O)(c4ccc(C(C)C)cc4)C4(C)CN(C)C4)c3)no2)CCN(C(C)=O)CC1` [Example 475], the IC50 amounted to 54.7 nM.

In the case of `CC(C)c1ccc([C@](O)(c2cncc(C#CC3(S(N)(=O)=O)CC3)c2)C2(C)CN(C)C2)cc1` [Example 607], the IC50 worked out at 104 nM.

As to `Cc1cccc(C(C)(O)C#Cc2cncc([C@@](O)(c3ccc(C4(C)CC4)cc3)C3(C)CN(C)C3)c2)n1` (stereo partly drawn) [Example 655], the IC50 stood at 55 nM.

As for `CC(C)c1ccc([C@](O)(c2cncc(-c3noc(C4CCN(C(=O)CC(F)(F)F)CC4)n3)c2)C2(C)CN(C)C2)cc1` [Example 473, 1-[4-(3-{5-[(R)-(1,3-Dimethyl-azetidin-3-yl)-hydroxy-(4-isopropyl-phenyl)-methyl]-pyridin-3-yl}-[1,2,4]oxadiazol-5-yl)-piperidin-1-yl]-3,3,3-trifluoro-propan-1-one], the IC50 worked out at 77.6 nM.

With `CC(C)c1ccc([C@](O)(c2cncc(-c3noc(C(C)(C)O)n3)c2)C2(C)CN(C)C2)cc1Cl` [Example 556], the IC50 is 615 nM.

Regarding `CC(C)c1ccc([C@](O)(c2cncc(OCc3ccccc3)c2)C2(C)CN(C)C2)cc1` [Example 245, (R)-(5-Benzyloxy-pyridin-3-yl)-(1,3-dimethyl-azetidin-3-yl)-(4-isopropyl-phenyl)-methanol], the IC50 amounted to 26 nM.

Regarding `CC(C)COc1cc([C@@](O)(c2ccc(C(C)C)cc2)C2(C)CN(C)C2)ccn1` [Example 164, (S)-(1,3-Dimethyl-azetidin-3-yl)-(2-isobutoxy-pyridin-4-yl)-(4-isopropyl-phenyl)-methanol], the IC50 came to 18.9 nM.

Take `CC(C)c1ccc([C@](O)(c2cncc(N3CC(c4ccccc4)OC3=O)c2)C2(C)CN(C)C2)cc1` (stereo partly drawn) [Example 194]: the IC50 turned out to be 20.5 nM.

Regarding `CC(C)c1ccc([C@](O)(c2cncc(-c3noc(C4CC(=O)N(C(C)C)C4)n3)c2)C2(C)CN(C)C2)cc1` (single isomer, unassigned) [Example 513], the IC50 is 101 nM.

As for `CC(C)c1ccc([C@](O)(c2cncc(C#CC3(O)CCc4cccnc43)c2)C2(C)CN(C)C2)cc1` (stereo partly drawn) [Example 43], the concentration for half-maximal inhibition (IC50) was found to be 55.9 nM.

For the compound `CC(C)c1ccc([C@](O)(c2cncc(OCCC(C)(C)O)c2)C2(C)CN(C)C2)cc1` [Example 256], the IC50 was 57.8 nM.

Take `CC(C)c1ccc([C@](O)(c2cncc(-c3noc(C4CCN(S(=O)(=O)C5CCOCC5)CC4)n3)c2)C2(C)CN(C)C2)cc1` [Example 387]: the IC50 worked out at 55.1 nM.

`CC(C)c1ccc(C(O)(c2cncc(C3=CC(O)CC3)c2)C2(C)CN(C)C2)cc1` (stereo not drawn) [Example 289, 3-{5-[(1,3-Dimethyl-azetidin-3-yl)-hydroxy-(4-isopropyl-phenyl)-methyl]-pyridin-3-yl}-cyclopent-2-enol]: the half-maximal inhibitory concentration (IC50) was found to be 82.4 nM.

For `CC(C)c1ccc([C@](O)(c2cncc(-c3nc(C45CC(CO)(C4)C5)no3)c2)C2(C)CN(C)C2)cc1` [Example 97], the concentration for half-maximal inhibition (IC50) was found to be 71.3 nM.

In the case of `Cc1cncc([C@@](O)(c2ccc(C(C)C)cc2)C2(C)CN(C)C2)c1` [Example 302, (R)-(1,3-Dimethyl-azetidin-3-yl)-(4-isopropyl-phenyl)-(5-methyl-pyridin-3-yl)-methanol], the IC50 amounted to 44.5 nM.

In the case of `CC(C)c1ccc([C@](O)(c2cncc(-c3noc(CCC#N)n3)c2)C2(C)CN(C)C2)cc1` [Example 499, 3-(3-{5-[(R)-(1,3-Dimethyl-azetidin-3-yl)-hydroxy-(4-isopropyl-phenyl)-methyl]-pyridin-3-yl}-[1,2,4]oxadiazol-5-yl)-propionitrile], the IC50 turned out to be 53.8 nM.

Consider `CC(C)c1ccc([C@](O)(c2cncc(C#CC3(O)CCOc4cccnc43)c2)C2(C)CN(C)C2)cc1` (stereo partly drawn) [Example 611], for which the IC50 came to 74.9 nM.

As to `CC(=O)N1CCC(Cc2nc(-c3cncc([C@@](O)(c4ccc(C(C)C)cc4)C4(C)CN(C)C4)c3)no2)CC1` [Example 496], the IC50 was 69.7 nM.

On to `CC(C)c1ccc([C@](O)(c2cncc(C#CC3(O)CC3)c2)C2(C)CN(C)C2)cc1` [Example 19], for which the IC50 came to 44.9 nM.

In the case of `CC(C)c1ccc(C(O)(c2cncc(OCC3COC3)c2)C2(C)CN(C)C2)cc1` (stereo not drawn) [Example 248], the IC50 came to 247 nM.

As to `[2H]C([2H])([2H])C(=O)N(C)CCc1nc(-c2cncc([C@@](O)(c3ccc(C(C)C)cc3)C3(C)CN(C)C3)c2)no1` [Example 145, (R)—N-(2-(3-(5-((1,3-dimethylazetidin-3-yl)(hydroxy)(4-isopropylphenyl)methyl)pyridin-3-yl)-1,2,4-oxadiazol-5-yl)-ethyl)-N-methylacetamide-d3], the IC50 stood at 274 nM.
